Measurements from ChEMBL document CHEMBL1159385, “Euphane and tirucallane triterpenes from the roots of Euphorbia kansui and their in vitro effects on the cell division of Xenopus” (2003).

Columns and labels:
Xenopus laevis [1] = species on record: Xenopus laevis; experiment: Induction of cell cleavage arrest in Xenopus laevis blastular stage cells at 10 ug/mL; assay type: functional, Blastula stage
Xenopus laevis [2] = species on record: Xenopus laevis; experiment: Growth inhibition of Xenopus laevis blastular stage cells at 10 ug/mL; assay type: functional; conditions: Blastula stage, read-out: GI

| Structure (SMILES) | Activity (Xenopus laevis [1]) [%] | inhibition of growth at 10 µg/mL (Xenopus laevis [2]) [%] |
| --- | --- | --- |
| CC(C)=CCC[C@H](C)[C@@H]1CC[C@]2(C)C3=C(CC[C@@]12C)[C@@]1(C)CC[C@H](O)C(C)(C)[C@@H]1CC3=O | >50 |  |
| O=c1[nH]cc(F)c(=O)[nH]1 [FLUOROURACIL] |  | 47 |
| CC(C)=CCC[C@@H](C)[C@@H]1CC[C@]2(C)C3=C(CC[C@@]12C)[C@@]1(C)CC[C@H](O)C(C)(C)[C@@H]1CC3=O [KANSENONE] | >50 |  |
